Measured values from patent US12590121B2, “Peptide compound with repetitive sequences” (KING ABDULLAH UNIVERSITY OF SCIENCE AND TECHNOLOGY, priority 2020, dated 2026).
Non-standard residues stand in square brackets, D forms with d. Residues, ends and D or L forms follow the SMILES beside them. Cha = N[C@@H](CC1CCCCC1)C(=O)O

Assays:
[1] = Peptide gelation studies (vial inversion method); format: physicochemical; conditions: for gelation time: 1×PBS buffer; for minimum gelation concentration: as used for 3D cell culture
Procedure: The peptide powder is dissolved in 0.90 mL of Milli-Q® water and vortexed until a clear and homogeneous solution is observed. Then 0.10 mL of 10×PBS buffer (w/o Ca^2+ and Mg^2+) is added to the peptide solution. The glass vial is kept undisturbed, and the hydrogel formation is observed using the vial inversion method. The time and minimum concentration at which each peptide has formed a hydrogel are noted.

[2] = Viscoelastic characterization: mechanical stiffness of peptide hydrogels (rheometer); format: physicochemical
Procedure: The viscoelastic characteristics of peptide hydrogels, including the mechanical stiffness and viscosity, are analyzed using TA Ares-G2 Rheometer equipped with advanced Peltier system (APS). The mechanical stiffness of the peptide gels is measured using an 8 mm parallel plate with a gap of 1.8 mm, between the upper and lower plates, and at 22° C. The hydrogels are prepared, one day before the measurement, by mixing 135 μl of peptide solution, and 15 μl of 10×PBS inside a 9 mm internal diameter Sigmacote® coated glass casting ring. The rings are then kept inside Petri dishes at room temperature with water surrounding and tightly sealed to avoid dehydration. For each peptide, six replicates are prepared to control the accuracy of the measurements. The stiffness is analyzed through three successive tests, which are time-sweep, frequency-sweep, and amplitude-sweep. Time-sweep is first performed for 5 minutes with angular frequency and a strain of 1 rad/s and 0.1%, respectively. A frequency sweep is subsequently performed on the sample for a range of angular frequency of 0.1-100 rad/s with the same strain of 0.1%. The tests are completed with the amplitude sweep by applying a gradual increase of strain from 0.01% to 100% at 1 rad/s angular frequency.

[3] = Viscosity of peptide solution before and after gelation (rheometer, flow experiment); format: physicochemical
Procedure: The viscosity of the peptide solution before and after gelation is determined using the same rheometer, 25 mm parallel plate geometry, and a gap of 0.5 mm at 25° C. For the peptide solution, 250 μl of 13 mg/mL peptide solution is dropped on the Peltier plate and measured. For peptide gel samples, the peptide solution and 10×PBS buffer are mixed with the ratio of 1:10 on the Peltier plate and directly measured. The flow experiment is set up by starting the shear rate from 0.1 to 1500 s-1 for a 200-seconds duration. The value of the shear rate that we choose for our printing system is calculated using the equation below: 51
[formula] • γ: shear rate (s−1); Q: flow rate (95 μL/s); d: diameter of needle (0.514 mm).

[4] = system: human dermal fibroblasts (hDF); format: cell-based
Procedure: hDF is used in bioprinting experiments. Each cell type is cultured in its complete growth media, as described before, and cells at passages 4-8 are used in printing experiments. For bioprinting, hDF is mixed with PBS at a final concentration of 5×10^6 and 8×10^6 cells/ml, respectively, and loaded into the microfluidic tubing of the robotic arm bioprinter. In the printing process, the flow rates are 10 μl/min, 55 μl/min, and 8 μl/min for cells, peptide solution, and 5×PBS, respectively. Different cell-laden structures are printed including cuboids with 10 mm edges and 2.6 mm height, and cylinders with 10 mm diameter, and a height of 10 mm. After printing, the printed cell-laden constructs are placed in the CO2 incubator for 5 min before the addition of complete growth media. The printed cell-laden constructs are placed in standard conditions (37° C., 5% CO2, and 95% relative humidity), and the media are changed every three days.
LIVE/DEAD® Cell Viability/Cytotoxicity Kit (ThermoFisher®, USA) is used to assess the viability of cells within the 3D printed constructs. The same protocol, as described earlier, is followed except for increasing the incubation time to 1 hour. The viability of cells is assessed immediately after printing, within 1 hour, designated as day 0 and at days 3, 7, 17 and 24 post-printing. For each time point, two cell-laden constructs are analyzed, and images are taken from different areas of the construct, including the center, edges, top, and bottom. Stained printed cell-laden constructs are imaged using an inverted laser scanning confocal microscope (Zeiss™ LSM 880 Inverted Confocal Microscope, Germany). The number of live and dead cells are counted using imageJ software, and the percentage of cell viability is calculated as the average ratio of live to total cells.

[5] = gel, 13 mg/ml, shear rate 29.7 s^−1

## CC[C@H](C)[C@H](NC(C)=O)C(=O)N[C@H](C(=O)N[C@@H](Cc1ccccc1)C(=O)N[C@@H](CCCCN)C(N)=O)[C@@H](C)CC [IIFK, Ac-Ile-Ile-Phe-Lys-NH2] (Ac-IIFK-NH2)
[1]; 1 mg/ml
  gelation time: less than 2.5 h
[1]; 10 mg/ml
  gelation time: less than 3 min
[1]
  minimum gelation concentration: 2 mg/mL
[2]; 1 mg/mL hydrogel
  Loss Modulus (G′): 0.13 ± 0.04 kPa
  Storage Modulus (G′): 1.25 ± 0.86 kPa
  tan δ (G″/G′): 0.10
[2]; 2 mg/mL hydrogel
  Loss Modulus (G′): 1.31 ± 0.12 kPa
  Storage Modulus (G′): 14.45 ± 1.37 kPa
  tan δ (G″/G′): 0.09
[2]; 5 mg/mL hydrogel
  Loss Modulus (G′): 2.39 ± 0.11 kPa
  Storage Modulus (G′): 27.26 ± 1.30 kPa
  tan δ (G″/G′): 0.09
[2]; 8 mg/mL hydrogel
  Loss Modulus (G′): 5.00 ± 0.31 kPa
  Storage Modulus (G′): 49.74 ± 5.02 kPa
  tan δ (G″/G′): 0.10
[2]; 10 mg/mL hydrogel
  Loss Modulus (G′): 9.04 ± 0.56 kPa
  Storage Modulus (G′): 94.18 ± 7.12 kPa
  tan δ (G″/G′): 0.10
[2]; 13 mg/mL hydrogel
  Loss Modulus (G′): 8.90 ± 0.36 kPa
  Storage Modulus (G′): 108.21 ± 5.02 kPa
  tan δ (G″/G′): 0.08
[3]; [5]
  Viscosity: 0.56 Pa · s
[3]; solution, 13 mg/mL
  Viscosity: 0.09 Pa · s
[4]
  cell viability in the center versus the edge of the filled cube structure: no difference

## CC[C@H](C)[C@H](NC(C)=O)C(=O)N[C@H](C(=O)N[C@@H](CC1CCCCC1)C(=O)N[C@@H](CCCCN)C(N)=O)[C@@H](C)CC [IIZK, Ac-Ile-Ile-Cha-Lys-NH2] (Ac-II[Cha]K-NH2)
[1]; 1 mg/ml
  gelation time: less than 7 min
[1]
  minimum gelation concentration: 1 mg/mL
[2]; 1 mg/mL hydrogel
  Loss Modulus (G′): 0.88 ± 0.04 kPa
  Storage Modulus (G′): 6.52 ± 0.18 kPa
  tan δ (G″/G′): 0.13
[2]; 2 mg/mL hydrogel
  Loss Modulus (G′): 2.02 ± 0.09 kPa
  Storage Modulus (G′): 16.82 ± 0.72 kPa
  tan δ (G″/G′): 0.12
[2]; 5 mg/mL hydrogel
  Loss Modulus (G′): 7.08 ± 0.59 kPa
  Storage Modulus (G′): 64.74 ± 4.89 kPa
  tan δ (G″/G′): 0.11
[2]; 8 mg/mL hydrogel
  Loss Modulus (G′): 10.91 ± 0.44 kPa
  Storage Modulus (G′): 89.40 ± 1.86 kPa
  tan δ (G″/G′): 0.12
[2]; 10 mg/mL hydrogel
  Loss Modulus (G′): 15.54 ± 0.68 kPa
  Storage Modulus (G′): 134.04 ± 5.99 kPa
  tan δ (G″/G′): 0.12
[2]; 13 mg/mL hydrogel
  Loss Modulus (G′): 37.76 ± 2.38 kPa
  Storage Modulus (G′): 271.34 ± 35.09 kPa
  tan δ (G″/G′): 0.14
[3]; [5]
  Viscosity: 0.47 Pa · s
[3]; solution, 13 mg/mL
  Viscosity: 0.03 Pa · s
[4]
  cell viability in the center versus the edge of the filled cube structure: slightly lower

## CC[C@H](C)[C@H](NC(C)=O)C(=O)N[C@@H](CC1CCCCC1)C(=O)N[C@@H](CC1CCCCC1)C(=O)N[C@@H](CCCCN)C(N)=O [IZZK, Ac-Ile-Cha-Cha-Lys-NH2] (Ac-I[Cha][Cha]K-NH2)
[2]; 1 mg/mL hydrogel
  Loss Modulus (G′): 0.36 ± 0.08 kPa
  Storage Modulus (G′): 3.71 ± 0.19 kPa
  tan δ (G″/G′): 0.10
[2]; 2 mg/mL hydrogel
  Loss Modulus (G′): 1.44 ± 0.07 kPa
  Storage Modulus (G′): 15.53 ± 0.74 kPa
  tan δ (G″/G′): 0.09
[2]; 5 mg/mL hydrogel
  Loss Modulus (G′): 11.60 ± 0.51 kPa
  Storage Modulus (G′): 85.87 ± 6.50 kPa
  tan δ (G″/G′): 0.14
[2]; 8 mg/mL hydrogel
  Loss Modulus (G′): 29.70 ± 1.54 kPa
  Storage Modulus (G′): 193.09 ± 10.13 kPa
  tan δ (G″/G′): 0.15
[2]; 10 mg/mL hydrogel
  Loss Modulus (G′): 39.71 ± 1.50 kPa
  Storage Modulus (G′): 222.13 ± 8.16 kPa
  tan δ (G″/G′): 0.18
[2]; 13 mg/mL hydrogel
  Loss Modulus (G′): 54.56 ± 1.46 kPa
  Storage Modulus (G′): 314.91 ± 10.10 kPa
  tan δ (G″/G′): 0.17
[3]; [5]
  Viscosity: 0.48 Pa · s
[3]; solution, 13 mg/mL
  Viscosity: 0.06 Pa · s
[4]
  cell viability in the center versus the edge of the filled cube structure: slightly lower

## FFFK: ultrashort amphiphilic peptide, one-letter amino acid sequence (Ac-FFFK-NH2)
[1]; 2 mg/ml
  gelation time: <15 min
[1]; 3 mg/ml
  gelation time: <10 min
[1]; 4 mg/ml
  gelation time: <5 min
[1]; 5 mg/ml
  gelation time: <5 min
[1]; 10 mg/ml
  gelation time: <2 min
[1]; 20 mg/ml
  gelation time (in words): simultaneously

## FFIK: ultrashort amphiphilic peptide, one-letter amino acid sequence (Ac-FFIK-NH2)
[1]; 1 mg/ml, in 1 h
  gelation (in words): Does not gel
[1]; 2 mg/ml
  gelation time: <10 min
[1]; 3 mg/ml
  gelation time: <10 min
[1]; 5 mg/ml
  gelation time: <5 min
[1]; 10 mg/ml
  gelation time: <5 min
[1]; 20 mg/ml
  gelation time: <5 min

## FIIK: ultrashort amphiphilic peptide, one-letter amino acid sequence (Ac-FIIK-NH2)
[1]; 1 mg/ml
  gel quality (in words): Soft gel
  gelation time: <15 min
[1]; 2 mg/ml
  gelation time: <5 min
[1]; 3 mg/ml
  gelation time: <10 min
[1]; 5 mg/ml
  gelation time: <10 min
[1]; 10 mg/ml
  gelation time: <5 min
[1]; 20 mg/ml
  gelation time: <5 min

## IFFK: ultrashort amphiphilic peptide, one-letter amino acid sequence (Ac-IFFK-NH2)
[1]; 1 mg/ml
  gel quality (in words): Slightly
  gelation time: >60 min
[1]; 2 mg/ml
  gelation time: <10 min
[1]; 3 mg/ml
  gelation time: <5 min
[1]; 4 mg/ml
  gelation time: <5 min
[1]; 5 mg/ml
  gelation time: <5 min
[1]; 10 mg/ml
  gelation time: <5 min
[1]; 20 mg/ml
  gelation time: <5 min

## ZIIK: ultrashort amphiphilic peptide, one-letter sequence; Z is cyclohexylalanine (Ac-[Cha]IIK-NH2; SMILES CC[C@H](C)[C@H](NC(=O)[C@H](CC1CCCCC1)NC(C)=O)C(=O)N[C@H](C(=O)N[C@@H](CCCCN)C(N)=O)[C@@H](C)CC)
[1]; 1 mg/ml
  gel quality (in words): Very soft gel
  gelation time: <60 min
[1]; 2 mg/ml
  gelation time: <10 min
[1]; 5 mg/ml
  gelation time: <10 min
[1]; 10 mg/ml
  gelation time: <5 min
[1]; 20 mg/ml
  gelation time: <5 min
